{"source": "patent US20250034200A1", "about": "“Prodrugs of Neurosteroid Analogs and Uses Thereof” (priority 2021, published 2025)", "key": {"[1]": {"experiment": "Aqueous stability assay (HPLC, pseudo first-order half-life)", "type": "physicochemical", "details": "DPBS pH 7.0-7.3, 1 mg/mL, room temperature; for half-life at 1 mg/mL / half-life: buffer, read-out: PBS t1/2 (converted)", "experimental": "Aqueous stability experiments were performed on an Agilent 1100 HPLC equipped with an Agilent 1200 autosampler. HPLC grade solvents were exclusively used during analysis, with acetonitrile being purchased from Sigma Aldrich, and water and formic acid provided by Fisher Scientific. […]\n[…] All mixtures were then sonicated for 5 min or stirred until complete dissolution was achieved. Any precipitate observed in sample solutions was filtered with a PTFE syringe filter prior to analysis. Immediately after sample preparation, injection by the HPLC autosampler was performed, which was recorded as the initial time point (t=0 min). Samples were then kept in the autosampler at room temperature and injected at designated intervals without additional filtration or sample modification. Next, the area of the parent peak in each chromatogram was determined by automated integration in the Agilent ChemStation software. Pseudo first-order half-lives were then ascertained by calculating the percent of the parent compound remaining after each time point. Plots of time (x-axis) vs. the natural logarithm of percent parent remaining (y-axis) were subsequently constructed to determine the slope. Finally, the aqueous stability was evaluated using the following equation:\nThe HPLC conditions were as follows: injection volume, 1 μL; column temperature: 40° C.; detector: 254 nm; stationary phase: Zorbax Eclipse XDB-C18 (4.6×150 mm, 5 μm); flow rate: 1 mL/min; mobile phase: 80-95% acetonitrile in H2O (0.1% formic acid)."}, "[2]": {"experiment": "Plasma stability assay (LC-MS/MS)", "type": "in vitro ADME", "details": "human plasma, 37° C., 3 μM", "experimental": "Procaine and procainamide were purchased from Sigma Aldrich. HPLC-grade acetonitrile, water, methanol, and formic acid were purchased from Fisher Scientific. Human plasma (Cat. No. […]2N) was obtained from BIOIVT, and PBS (1×Dulbecco's, pH 7.4) from Thermo Fisher Scientific.\nTest compounds were dissolved in DMSO to make a stock solution of 10 mM and then diluted to 500 μM in buffer or 70% methanol. Human plasma was thawed at ambient temperature and aliquoted (994.0 μL) to a 1.5 mL Eppendorf tube in duplicates (vials A and B) for each compound. The plasma was incubated at 37° C. for 10 min in an incubator shaker at 150 RPM; the reaction was initiated by addition of the test compound (6.0 μL), followed by vortex mixing. The total reaction volume was 1000 μL, the final organic solvent concentrations were […] (when 70% methanol was used for dilution) and 0.03% DMSO, and the final concentration of the test compound was 3 μM. The spiked plasma samples were incubated at 37° C. for 4 h. The reactions were terminated at time point 0, 15, 30, 60, 120, 180, and 240 min by taking a 100 μL aliquot from the test incubation mixture and immediately quenching it by adding it into ice-cold acetonitrile or methanol (150 μL) containing 2 μM internal standard (ISTD), followed by vortex mixing. The ISTD was d5-7-ethoxy coumarin. The samples were then centrifuged at 15000 RPM for 25 min at 4° C., and the supernatant was transferred to an LC-MS vial for analysis by LC-MS/MS. Each time point was tested in duplicates followed by in-between blank washes to avoid carryover and to equilibrate the column.\nProcaine (poor plasma stability) and procainamide (good plasma stability) were used as controls at the same concentration as that of the test compound. These controls were run in parallel to test the assay's competency. Matrix blank was prepared by adding acetonitrile or methanol containing ISTD to plasma samples without any of the test or control compounds. Also, an additional control sample was made to simply monitor compound degradation in PBS buffer.\nBelow is a summary of samples prepared for a given test compound in a typical plasma stability assay: • Test compound (TC): 994 μL human plasma+6.0 μL TC (Vial A) 994 μL human plasma+6.0 μL TC (Vial B) • Control: 596 μL human plasma+3.6 μL (procaine+procainamide) • Blank matrix: 500 μL PBS buffer+100 μL human plasma • Additional control: 142 μL PBS buffer+0.9 μL TC • Quenching mixture: 150 μL acetonitrile or methanol with ISTD (2 μM) • Final volume: 250 μL (100 μL from the incubation mixture+150 μL quenching mixture; final ISTD conc.: 1.2 μM)\nLC-MS/MS analysis was performed using Agilent 1260 Infinity II HPLC, coupled with an Agilent G6460 triple quadrupole mass spectrometer (Agilent Technologies, USA). The data were acquired and processed using the Agilent 6460 Quantitative Analysis data processing software.\nReverse-phase HPLC separation for each compound was achieved on an Agilent InfinityLab Poroshell 120 C18 column (2.1×50 mm, 2.7 μm) with a mobile phase composed of methanol/water with 0.1% formic acid or acetonitrile/water with 0.1% formic acid at a flow rate of 0.5 mL/min. Each method was developed in the presence of the ISTD. The column temperature was maintained at 40° C. The detection was operated using the Agilent Jet-Stream electrospray positive ionization under the multiple reaction monitoring mode. The mass spec conditions were as follows: dwell time 100 ms; gas flow 10 L/min; nebulizer pressure 45 psi; delta EMV 200 V.\nPlots of time (x-axis) vs. the natural logarithm of percent parent remaining (y-axis) were subsequently constructed to determine the slope. Finally, the plasma stability was evaluated using the following equation: […]"}, "[3]": {"experiment": "Nephelometry (aqueous solubility)", "type": "physicochemical", "details": "DPBS with 1% DMSO, aqueous buffer, kinetic from dmso stock, DPBS pH 7.0-7.3, 1% DMSO, 25° C.", "excerpt": "Well A1 of the plate contained 100% DMSO."}, "[4]": {"details": "read-out: Plasma t1/2 (converted)"}}, "note": "Where a name gives a salt, the structure may show the parent alone. Read-outs that look alike come from different tables or passages of the source."}
{"smiles": "C/C(=N\\OC(=O)NCCN)[C@H]1CC[C@H]2[C@@H]3CCC4=CC(=O)CC[C@]4(C)[C@H]3CC[C@]12C", "note": "[32a, (8S,9S,10R,13S,14S,17S)-17-((E)-1-((((2-aminoethyl)carbamoyl)oxy)imino)ethyl)-10,13-dimethyl-1,2,6,7,8,9,10,11,12,13,14,15,16,17-tetradecahydro-3H-cyclopenta[a]phenanthren-3-one hydrochloride]", "values": [{"measurement": "half-life at 1 mg/mL", "setting": "[1]", "result": "> 30", "unit": "h"}, {"measurement": "Plasma t1/2", "setting": "[2]", "result": ">2", "unit": "h"}, {"measurement": "solubility at 90 min", "setting": "[3]", "result": "> 750", "unit": "µM"}]}
{"smiles": "CNCCN(CCO)C(=O)O/N=C(\\C)[C@H]1CC[C@H]2[C@@H]3CCC4=CC(=O)CC[C@]4(C)[C@H]3CC[C@]12C", "note": "[32c, 2-((((((E)-1-((8S,9S,10R,13S,14S,17S)-10,13-dimethyl-3-oxo-2,3,6,7,8,9,10,11,12,13,14,15,16,17-tetradecahydro-1H-cyclopenta[a]phenanthren-17-yl)ethylidene)amino)oxy)carbonyl)(2-hydroxyethyl)amino)-N-methylethan-1-aminium chloride]", "values": [{"measurement": "half-life at 1 mg/mL", "setting": "[1]", "result": "24.8 ± 1.1", "unit": "h"}, {"measurement": "half-life at 3 µM", "setting": "[2]; [4]", "result": 1.7, "unit": "h"}, {"measurement": "solubility at 90 min", "setting": "[3]", "result": "> 500", "unit": "µM"}]}
{"smiles": "C/C(=N\\OC(=O)NC[C@@H]1CCCCN1)[C@H]1CCC2[C@@H]3CCC4=CC(=O)CC[C@]4(C)[C@H]3CC[C@@]21C", "note": "(stereo partly drawn) [32i, (8S,9S,10R,13S,17S)-10,13-dimethyl-17-((E)-1-((((((S)-piperidin-2-yl)methyl)carbamoyl)oxy)imino)ethyl)-1,2,6,7,8,9,10,11,12,13,14,15,16,17-tetradecahydro-3H-cyclopenta[a]phenanthren-3-one hydrochloride]", "values": [{"measurement": "half-life at 1 mg/mL", "setting": "[1]; d (days)", "result": 684, "unit": "h"}, {"measurement": "solubility at 90 min", "setting": "[3]", "result": "> 750", "unit": "µM"}]}
{"smiles": "CNCCN(C(=O)O/N=C(\\C)[C@H]1CC[C@H]2[C@@H]3CCC4=CC(=O)CC[C@]4(C)[C@H]3CC[C@]12C)C1CCC1.O=C(O)C(F)(F)F", "note": "[53c, (E)-5-cyclobutyl-9-((8S,9S,10R,13S,14S,17S)-10,13-dimethyl-3-oxo-2,3,6,7,8,9,10,11,12,13,14,15,16,17-tetradecahydro-1H-cyclopenta[a]phenanthren-17-yl)-7-oxa-2,5,8-triazadec-8-en-6-one 2,2,2-trifluoroacetate]", "values": [{"measurement": "PBS t1/2", "setting": "[1]", "result": "11.79 ± 0.51", "unit": "h"}, {"measurement": "solubility at 90 min", "setting": "[3]", "result": "> 750", "unit": "µM"}]}
{"smiles": "CNCCN(CCN(C)C)C(=O)O/N=C(\\C)[C@H]1CC[C@H]2[C@@H]3CCC4=CC(=O)CC[C@]4(C)[C@H]3CC[C@]12C.O=C(O)C(F)(F)F", "note": "[53f, (E)-9-((8S,9S,10R,13S,14S,17S)-10,13-dimethyl-3-oxo-2,3,6,7,8,9,10,11,12,13,14,15,16,17-tetradecahydro-1H-cyclopenta[a]phenanthren-17-yl)-2-methyl-5-(2-(methylamino)ethyl)-7-oxa-2,5,8-triazadec-8-en-6-one 2,2,2-trifluoroacetate]", "values": [{"measurement": "PBS t1/2", "setting": "[1]", "result": "2.17 ± 0.02", "unit": "h"}, {"measurement": "solubility at 90 min", "setting": "[3]", "result": "> 500", "unit": "µM"}]}
{"smiles": "CNCCN(CCNC)C(=O)O/N=C(\\C)[C@H]1CC[C@H]2[C@@H]3CCC4=CC(=O)CC[C@]4(C)[C@H]3CC[C@]12C.Cl.Cl", "note": "[53i, (E)-9-((8S,9S,10R,13S,14S,17S)-10,13-dimethyl-3-oxo-2,3,6,7,8,9,10,11,12,13,14,15,16,17-tetradecahydro-1H-cyclopenta[a]phenanthren-17-yl)-5-(2-(methylamino)ethyl)-7-oxa-2,5,8-triazadec-8-en-6-one dihydrochloride]", "values": [{"measurement": "PBS t1/2", "setting": "[1]", "result": "1.51 ± 0.05", "unit": "h"}, {"measurement": "solubility at 90 min", "setting": "[3]", "result": "> 750", "unit": "µM"}]}
{"smiles": "C/C(=N\\OC(=O)N(CCN)CCN)[C@H]1CC[C@H]2[C@@H]3CCC4=CC(=O)CC[C@]4(C)[C@H]3CC[C@]12C.O=C(O)C(F)(F)F.O=C(O)C(F)(F)F", "note": "[53j, (8S,9S,10R,13S,14S,17S)-17-((E)-1-(((bis(2-aminoethyl)carbamoyl)oxy)imino)ethyl)-10,13-dimethyl-1,2,6,7,8,9,10,11,12,13,14,15,16,17-tetradecahydro-3H-cyclopenta[a]phenanthren-3-one bis(2,2,2-trifluoroacetate)]", "values": [{"measurement": "PBS t1/2", "setting": "[1]", "result": "10.13 ± 0.41", "unit": "h"}, {"measurement": "solubility at 90 min", "setting": "[3]", "result": "> 750", "unit": "µM"}]}
{"smiles": "C/C(=N\\OC(=O)N(C)CCO)[C@H]1CC[C@H]2[C@@H]3CCC4=CC(=O)CC[C@]4(C)[C@H]3CC[C@]12C", "note": "[compound 33, (8S,9S,10R,13S,14S,17S)-17-((E)-1-((((2-hydroxyethyl)(methyl)carbamoyl)oxy)imino)ethyl)-10,13-dimethyl-1,2,6,7,8,9,10,11,12,13,14,15,16,17-tetradecahydro-3H-cyclopenta[a]phenanthren-3-one]", "values": [{"measurement": "half-life", "setting": "[1]", "result": 38.5, "unit": "h"}, {"measurement": "solubility at 90 min", "setting": "[3]", "result": "124 ± 3.28", "unit": "µM"}]}
{"smiles": "C/C(=N\\OC(=O)OCCN(C)C)[C@H]1CC[C@H]2[C@@H]3CCC4=CC(=O)CC[C@]4(C)[C@H]3CC[C@]12C.Cl", "note": "[compound 35, (E)-9-((8S,9S,10R,13S,14S,17S)-10,13-dimethyl-3-oxo-2,3,6,7,8,9,10,11,12,13,14,15,16,17-tetradecahydro-1H-cyclopenta[a]phenanthren-17-yl)-2-methyl-5,7-dioxa-2,8-diazadec-8-en-6-one hydrochloride]", "values": [{"measurement": "half-life", "setting": "[1]", "result": "3.5 ± 0.6", "unit": "h"}, {"measurement": "Plasma t1/2", "setting": "[2]", "result": 7.2, "unit": "h"}]}
{"smiles": "CNCCCN(C)C(=O)O/N=C(\\C)[C@H]1CC[C@H]2[C@@H]3CCC4=CC(=O)CC[C@]4(C)[C@H]3CC[C@]12C.Cl", "note": "[compound 39, (E)-10-((8S,9S,10R,13S,14S,17S)-10,13-dimethyl-3-oxo-2,3,6,7,8,9,10,11,12,13,14,15,16,17-tetradecahydro-1H-cyclopenta[a]phenanthren-17-yl)-6-methyl-8-oxa-2,6,9-triazaundec-9-en-7-one hydrochloride]", "values": [{"measurement": "half-life", "setting": "[1]; d (days)", "result": "> 720", "unit": "h"}, {"measurement": "Plasma t1/2", "setting": "[2]", "result": ">4", "unit": "h"}]}
{"smiles": "CNCC(C)(C)CN(C)C(=O)O/N=C(\\C)[C@H]1CCC2[C@@H]3CCC4=CC(=O)CC[C@]4(C)[C@H]3CC[C@@]21C.Cl", "note": "(stereo partly drawn) [compound 40, (E)-10-((8S,9S,10R,13S,17S)-10,13-dimethyl-3-oxo-2,3,6,7,8,9,10,11,12,13,14,15,16,17-tetradecahydro-1H-cyclopenta[a]phenanthren-17-yl)-4,4,6-trimethyl-8-oxa-2,6,9-triazaundec-9-en-7-one hydrochloride]", "values": [{"measurement": "half-life", "setting": "[1]; d (days)", "result": 547, "unit": "h"}, {"measurement": "half-life", "setting": "[2]; [4]", "result": "> 4", "unit": "h"}]}
{"smiles": "C/C(=N\\OC(=O)N(C)CCNCCOC(F)(F)F)[C@H]1CC[C@H]2[C@@H]3CCC4=CC(=O)CC[C@]4(C)[C@H]3CC[C@]12C.Cl", "note": "[compound 41, (E)-12-((8S,9S,10R,13S,14S,17S)-10,13-dimethyl-3-oxo-2,3,6,7,8,9,10,11,12,13,14,15,16,17-tetradecahydro-1H-cyclopenta[a]phenanthren-17-yl)-1,1,1-trifluoro-8-methyl-2,10-dioxa-5,8,11-triazatridec-11-en-9-one hydrochloride]", "values": [{"measurement": "half-life", "setting": "[1]", "result": "28.5 ± 1.8", "unit": "h"}, {"measurement": "half-life", "setting": "[2]; [4]", "result": 1.1, "unit": "h"}]}
